Experimental findings from patent publication US7977352B2, “Triazolopyridine compounds useful for the treatment of degenerative and inflammatory diseases” (Galapagos NV, priority 2006, dated 2011) are described below.

In this test the target is T1, TAK1-TAB1 fusion protein (Homo sapiens, UniProt O43318).
T1 construct: purchased Upstate 14-600
T1 sequence (O43318 with tags, fused parts or gaps limits assumed): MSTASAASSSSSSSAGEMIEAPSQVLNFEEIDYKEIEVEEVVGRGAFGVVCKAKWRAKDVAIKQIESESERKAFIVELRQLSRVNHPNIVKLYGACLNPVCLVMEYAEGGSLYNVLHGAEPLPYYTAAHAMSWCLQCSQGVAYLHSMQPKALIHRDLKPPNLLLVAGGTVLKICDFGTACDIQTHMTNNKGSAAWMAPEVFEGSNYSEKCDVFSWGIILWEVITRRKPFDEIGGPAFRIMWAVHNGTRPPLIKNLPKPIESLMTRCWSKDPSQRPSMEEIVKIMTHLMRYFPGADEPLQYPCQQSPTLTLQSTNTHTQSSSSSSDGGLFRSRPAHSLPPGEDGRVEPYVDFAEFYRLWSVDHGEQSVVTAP
Kind of test: In vitro TAK1 kinase assay. Type of test: biochemical. Particulars: casein substrate, [33P]-γ-ATP, 90 minutes at 30° C., semi-quantitative score, read-out: POTENCY TAK1 (MAP3K7). The gist of the method: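 Radiometric kinase assay with TAK1-TAB1 fusion protein (0.5 mU), casein substrate, ATP plus [^33P]-γ-ATP in MOPS pH 7.0/EDTA buffer, compounds in 3-fold dilutions. 90 min at 30 °C, stopped with phosphoric acid; casein-incorporated label captured on filter plates and counted by scintillation.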
As to `CN1CCN(c2ccc(Nc3ccc(-c4cn[nH]c4)n4ncnc34)cc2)CC1` [Example 36, N-[4-(4-methylpiperazin-1-yl)phenyl]-5-(1H-pyrazol-4-yl)[1,2,4]triazolo[1,5-a]pyridin-8-amine], the IC50 was less than 500 nM.

On to `O=C(NCc1cccnc1)c1ccc(Nc2ccc(-c3cn[nH]c3)n3ncnc23)cc1` [Example 37, 4-{[5-(1H-pyrazol-4-yl)[1,2,4]triazolo[1,5-a]pyridin-8-yl]amino}-N-(pyridin-3-ylmethyl)benzamide], for which the IC50 was in the range of 501 to 1000 nM.

Turning to `O=C(NCc1cccnc1)c1ccc(Nc2ccc(-c3cn[nH]c3)n3ncnc23)cc1` [Example 3, 4-[5-(1H-Pyrazol-4-yl)-[1,2,4]triazolo[1,5-a]pyridin-8-ylamino]-N-pyridin-3-ylmethyl-benzamide], the IC50 was in the range of 501 to 1000 nM.

For `NC(=O)c1ccc(-c2ccc(Nc3ccc(N4CCOCC4)cc3)c3ncnn23)cc1` [Example 1, 4-[8-(4-Morpholin-4-yl-phenylamino)-[1,2,4]triazolo[1,5-a]pyridin-5-yl]-benzamide], the IC50 was greater than 10000 nM.

`Cc1[nH]ncc1-c1ccc(Nc2ccc(N3CCOCC3)cc2)c2ncnn12` [Example 8, [5-(5-Methyl-1H-pyrazol-4-yl)-[1,2,4]triazolo[1,5-a]pyridin-8-yl]-(4-morpholin-4-yl-phenyl)-amine]: the IC50 lay within 1000 to 5000 nM.

With `CN1CCN(c2ccc(Nc3ccc(-c4cc[nH]c(=O)c4)n4ncnc34)cc2)CC1` [Example 4, 4-{8-[4-(4-Methyl-piperazin-1-yl)-phenylamino]-[1,2,4]triazolo[1,5-a]pyridin-5-yl}-1H-pyridin-2-one], the IC50 is 501 to 1000 nM.

With `O=C(NCc1cccnc1)c1ccc(Nc2ccc(-c3cc[nH]c(=O)c3)n3ncnc23)cc1` [Example 5, 4-[5-(2-oxo-1,2-dihydro-pyridin-4-yl)-[1,2,4]triazolo[1,5-a]pyridin-8-ylamino]-N-pyridin-3-ylmethyl-benzamide], the IC50 was 501 to 1000 nM.

As to `CN1CCN(c2ccc(Nc3ccc(-c4cn[nH]c4)n4ncnc34)cc2)CC1` [Example 2, [4-(4-Methyl-piperazin-1-yl)-phenyl]-[5-(1H-pyrazol-4-yl)-[1,2,4]triazolo[1,5-a]pyridin-8-yl]-amine], the IC50 is 501 to 1000 nM.

Consider `O=C(NCc1cccnc1)c1ccc(Nc2ccc(-c3cc[nH]c(=O)c3)n3ncnc23)cc1` [Example 41, 4-{[5-(2-oxo-1,2-dihydropyridin-4-yl)[1,2,4]triazolo[1,5-a]pyridin-8-yl]amino}-N-(pyridin-3-ylmethyl)benzamide], for which the IC50 was 1000 to 5000 nM.

For `CN1CCN(c2ccc(Nc3ccc(-c4ccc(C(N)=O)c(F)c4)n4ncnc34)cc2)CC1` [Example 42, 2-fluoro-4-(8-{[4-(4-methylpiperazin-1-yl)phenyl]amino}[1,2,4]triazolo[1,5-a]pyridin-5-yl)benzamide], the IC50 is 1000 to 5000 nM.

Turning to `c1nc2c(Nc3ccc(N4CCOCC4)cc3)ccc(-c3cn[nH]c3)n2n1` [Example 7, (4-Morpholin-4-yl-phenyl)-[5-(1H-pyrazol-4-yl)-[1,2,4]triazolo[1,5-a]pyridin-8-yl]-amine], the IC50 lay within 501 to 1000 nM.

`CN1CCN(c2ccc(Nc3ccc(-c4cc[nH]c(=O)c4)n4ncnc34)cc2)CC1` [Example 40, 4-(8-{[4-(4-methylpiperazin-1-yl)phenyl]amino}[1,2,4]triazolo[1,5-a]pyridin-5-yl)pyridin-2(1H)-one]: the IC50 is less than 500 nM.

As to `Cc1[nH]ncc1-c1ccc(Nc2ccc(N3CCOCC3)cc2)c2ncnn12` [Example 39, 5-(5-methyl-1H-pyrazol-4-yl)-N-(4-morpholin-4-ylphenyl)[1,2,4]triazolo[1,5-a]pyridin-8-amine], the IC50 fell in the range of 1000 to 5000 nM.
